Results from PMC8948292, “Combining PEGylated mito-atovaquone with MCT and Krebs cycle redox inhibitors as a potential strategy to abrogate tumor cell proliferation” (Scientific Reports, 2022).
Like-named read-outs stand apart in the source and are kept apart here. One block for each molecule: values may come before it.

How the values were obtained:
MiaPaCa-2 cells = assay: Cell proliferation (cell confluence), IncuCyte Live-Cell Analysis System; assay type: cell-based, human; settings: for IC50: Homo sapiens; for Inhibition of cell proliferation in combination with AZD-3965: combined with AZD-3965
Description: The following cell lines were obtained from the American Type Culture Collection (Manassas, VA), where they were regularly authenticated: MiaPaCa-2 (ATCC Cat# CRL-1420, human pancreatic cancer cells), U87MG (ATCC Cat# HTB-14, human brain cancer cells), A549 (ATCC Cat# CCL-185, lung cancer cells), and HCT-116 (ATCC Cat# CCL-247, colon cancer cells). All cell lines were grown at 37 °C in 5% carbon dioxide. MiaPaCa-2 cells were maintained in Dulbecco's Modified Eagle Medium (Thermo Fisher Scientific, Waltham, MA; Cat# 11965) supplemented with 10% fetal bovine serum. U87MG, A549, and HCT-116 cells were maintained in RPMI 1640 medium (Thermo Fisher Scientific, Cat# 11875), supplemented with 10% fetal bovine serum. All cells were stored in liquid nitrogen and used within 20 passages after thawing.
The IncuCyte Live-Cell Analysis System was used to monitor cell proliferation[3],[33],[67]. As shown in previous publications[3],[67], this imaging system is probe-free and noninvasive, and enables continuous monitoring of cell confluence over several days. The increase in the percentage of cell confluence was used as a surrogate marker of cell proliferation. In a 96-well plate, cells were plated at 1,000 cells per well in triplicates and left to adhere overnight. Cells were then treated with Mito-PEG-ATO analogs, and the cell confluency was recorded over several days in the IncuCyte Live-Cell Analysis System.

[1] = system: mitochondrial respiration (OCR) in intact MiaPaCa-2 cells; assay: Intact cell mitochondrial respiration (basal OCR), Seahorse XF-96; assay type: cell-based, human; settings: for OCR (pmol/min/µg protein): intact MiaPaCa-2 cells, baseline OCR, mean, n=4; for IC50: Homo sapiens, read-out: IC50, inhibition of basal OCR in intact cells
Description: (§1) Mitochondrial oxygen consumption was measured using the Seahorse XF-96 Extracellular Flux Analyzer (Agilent, North Billerica, MA)[3],[33],[67],[68]. To determine the intact cell mitochondrial function of MiaPaCa-2 cells in response to Mito-PEG-ATO analogs, we used the bioenergetic function assay previously described[2],[3]. […] From these measurements, indices of mitochondrial function were determined as previously described[2],[3]. For mitochondrial complex activities assays, after cells were treated with Mito-PEG-ATO analogs for 24 h, the OCR-based assessment of mitochondrial complex activities was carried out on acutely permeabilized cells in the presence of different mitochondrial substrates, i.e., pyruvate/malate for complex I and duroquinol for complex III[3],[32],[34],[69]. Rotenone, malonate, and antimycin A (Sigma-Aldrich, St. Louis, MO) were used as specific inhibitors of mitochondrial complexes I, II, and III, respectively. Briefly, cells that were intact after treatments were immediately permeabilized using the Seahorse XF Plasma Membrane Permeabilizer (Agilent). The mitochondrial complex I-induced OCR was assayed in mannitol and sucrose buffer[69] containing 10 mM pyruvate and 1.5 mM malate (substrates for complex I) and 10 mM malonate (which inhibits complex II activities). The mitochondrial complex III-driven OCR was assayed in a mannitol and sucrose buffer containing 0.5 mM duroquinol (substrate for complex III) as well as 1 µM rotenone and 10 mM malonate (which inhibit both complex I and II activities). The IC50 values were determined as previously reported.

[2] = molecular target: mitochondrial complex III (MiaPaCa-2 cells) (Homo sapiens, UniProt P00156); assay: Complex III-dependent oxygen consumption in permeabilized cells, Seahorse XF-96; assay type: cell-based
Description: as §1

[3] = MiaPaCa-2 cells, 1 µM, control ~90% confluence
[4] = MiaPaCa-2 cells, 3 µM, control ~90% confluence
[5] = MiaPaCa-2 cells, 10 µM, control ~90% confluence

Sequence of mitochondrial complex III (MiaPaCa-2 cells) (P00156 whole entry): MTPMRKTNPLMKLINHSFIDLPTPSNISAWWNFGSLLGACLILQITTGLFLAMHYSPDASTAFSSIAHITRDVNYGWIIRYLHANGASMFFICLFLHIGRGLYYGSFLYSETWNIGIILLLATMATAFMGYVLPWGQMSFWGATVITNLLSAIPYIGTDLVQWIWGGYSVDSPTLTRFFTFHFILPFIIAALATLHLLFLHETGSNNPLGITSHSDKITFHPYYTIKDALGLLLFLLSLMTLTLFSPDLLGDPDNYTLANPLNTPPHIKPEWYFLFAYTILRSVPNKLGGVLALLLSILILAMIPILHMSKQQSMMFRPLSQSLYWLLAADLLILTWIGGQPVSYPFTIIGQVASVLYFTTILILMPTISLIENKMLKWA
Sequence of mitochondrial complex III (MiaPaCa-2 cells) (P47985 whole entry partner): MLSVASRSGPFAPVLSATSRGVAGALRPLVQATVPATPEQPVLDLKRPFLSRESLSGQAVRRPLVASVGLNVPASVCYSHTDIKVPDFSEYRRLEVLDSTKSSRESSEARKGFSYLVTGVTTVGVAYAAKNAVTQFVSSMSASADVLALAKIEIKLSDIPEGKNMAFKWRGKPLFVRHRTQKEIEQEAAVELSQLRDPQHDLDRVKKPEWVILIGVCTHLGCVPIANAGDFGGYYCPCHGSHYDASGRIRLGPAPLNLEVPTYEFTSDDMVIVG

IC50 (MiaPaCa-2 cells; MIA PaCa-2, MiaPaCa-2 cells, determined when control cells reached ~90% confluence, read-out: IC50, inhibition of cell proliferation): 24 µM
IC50 ([1]; MIA PaCa-2, MiaPaCa-2 cells, 24 h treatment): 22 µM
SMILES: COCCOCCOCCOCCOC1=C([C@H]2CC[C@H](c3ccc(Cl)cc3)CC2)C(=O)c2ccccc2C1=O [PEG4-ATO, 2-((2,5,8,11-tetraoxatridecan-13-yl)oxy)-3-(trans-4-(4-chlorophenyl)cyclohexyl)naphthalene-1,4-dione]
Cell confluence (% of control) (MiaPaCa-2 cells; [3]): 96.77 % of control
Cell confluence (% of control) (MiaPaCa-2 cells; [4]): 98.45 % of control
Cell confluence (% of control) (MiaPaCa-2 cells; MiaPaCa-2 cells, 5 µM, control ~90% confluence): 92.22 % of control
Cell confluence (% of control) (MiaPaCa-2 cells; [5]): 88.90 % of control
Cell confluence (% of control) (MiaPaCa-2 cells; MiaPaCa-2 cells, 15 µM, control ~90% confluence): 79.02 % of control
Cell confluence (% of control) (MiaPaCa-2 cells; MiaPaCa-2 cells, 20 µM, control ~90% confluence): 50.78 % of control
Cell confluence (% of control) (MiaPaCa-2 cells; MiaPaCa-2 cells, 30 µM, control ~90% confluence): 33.44 % of control
Cell confluence (% of control) (MiaPaCa-2 cells; MiaPaCa-2 cells, 35 µM, control ~90% confluence): 24.27 % of control
Cell confluence (% of control) (MiaPaCa-2 cells; MiaPaCa-2 cells, 40 µM, control ~90% confluence): 17.96 % of control
Cell confluence (% of control) (MiaPaCa-2 cells; MiaPaCa-2 cells, 50 µM, control ~90% confluence): 10.27 % of control
OCR (pmol/min/µg protein) ([1]; 1 µM, 24 h treatment): 14.02 pmol/min/µg protein
OCR (pmol/min/µg protein) ([1]; 3 µM, 24 h treatment): 11.47 pmol/min/µg protein
OCR (pmol/min/µg protein) ([1]; 10 µM, 24 h treatment): 8.99 pmol/min/µg protein
OCR (pmol/min/µg protein) ([1]; 15 µM, 24 h treatment): 8.66 pmol/min/µg protein
OCR (pmol/min/µg protein) ([1]; 17.5 µM, 24 h treatment): 8.14 pmol/min/µg protein
OCR (pmol/min/µg protein) ([1]; 20 µM, 24 h treatment): 6.77 pmol/min/µg protein
OCR (pmol/min/µg protein) ([1]; 22.5 µM, 24 h treatment): 6.79 pmol/min/µg protein
OCR (pmol/min/µg protein) ([1]; 25 µM, 24 h treatment): 5.93 pmol/min/µg protein
OCR (pmol/min/µg protein) ([1]; 30 µM, 24 h treatment): 6.26 pmol/min/µg protein
OCR (pmol/min/µg protein) ([1]; 40 µM, 24 h treatment): 4.53 pmol/min/µg protein
OCR (pmol/min/µg protein) ([1]; 50 µM, 24 h treatment): 2.22 pmol/min/µg protein

SMILES: O=C1C(OCCOCC[P+](c2ccccc2)(c2ccccc2)c2ccccc2)=C([C@H]2CC[C@H](c3ccc(Cl)cc3)CC2)C(=O)c2ccccc21.[Br-] [Mito-PEG2-ATO, [2-(2-((3-(trans-4-(4-chlorophenyl)cyclohexyl)-1,4-dioxo-1,4-dihydronaphthalen-2-yl)oxy)ethoxy)ethyl]triphenylphosphonium bromide]
IC50 (MiaPaCa-2 cells; MIA PaCa-2, read-out: IC50, inhibition of cell proliferation): 0.3 µM
Cell confluence (% of control) (MiaPaCa-2 cells; MiaPaCa-2 cells, 0.003 µM, control ~90% confluence): 95.33 % of control
Cell confluence (% of control) (MiaPaCa-2 cells; MiaPaCa-2 cells, 0.01 µM, control ~90% confluence): 101.09 % of control
Cell confluence (% of control) (MiaPaCa-2 cells; MiaPaCa-2 cells, 0.03 µM, control ~90% confluence): 98.91 % of control
Cell confluence (% of control) (MiaPaCa-2 cells; MiaPaCa-2 cells, 0.05 µM, control ~90% confluence): 101.49 % of control
Cell confluence (% of control) (MiaPaCa-2 cells; MiaPaCa-2 cells, 0.1 µM, control ~90% confluence): 100.20 % of control
Cell confluence (% of control) (MiaPaCa-2 cells; MiaPaCa-2 cells, 0.2 µM, control ~90% confluence): 91.59 % of control
Cell confluence (% of control) (MiaPaCa-2 cells; MiaPaCa-2 cells, 0.3 µM, control ~90% confluence): 54.02 % of control
Cell confluence (% of control) (MiaPaCa-2 cells; MiaPaCa-2 cells, 0.5 µM, control ~90% confluence): 5.85 % of control
Cell confluence (% of control) (MiaPaCa-2 cells; [3]): 3.35 % of control
Cell confluence (% of control) (MiaPaCa-2 cells; [4]): 3.28 % of control
Cell confluence (% of control) (MiaPaCa-2 cells; [5]): 2.85 % of control
OCR (pmol/min/µg protein) ([1]; 0.01 µM, 24 h treatment): 16.21 pmol/min/µg protein
OCR (pmol/min/µg protein) ([1]; 0.1 µM, 24 h treatment): 14.62 pmol/min/µg protein
OCR (pmol/min/µg protein) ([1]; 0.2 µM, 24 h treatment): 14.19 pmol/min/µg protein
OCR (pmol/min/µg protein) ([1]; 0.3 µM, 24 h treatment): 13.58 pmol/min/µg protein
OCR (pmol/min/µg protein) ([1]; 0.4 µM, 24 h treatment): 12.73 pmol/min/µg protein
OCR (pmol/min/µg protein) ([1]; 0.5 µM, 24 h treatment): 10.74 pmol/min/µg protein
OCR (pmol/min/µg protein) ([1]; 0.75 µM, 24 h treatment): 8.54 pmol/min/µg protein
OCR (pmol/min/µg protein) ([1]; 1 µM, 24 h treatment): 6.82 pmol/min/µg protein
OCR (pmol/min/µg protein) ([1]; 3 µM, 24 h treatment): 1.26 pmol/min/µg protein
OCR (pmol/min/µg protein) ([1]; 10 µM, 24 h treatment): -0.10 pmol/min/µg protein
IC50 ([1]; MIA PaCa-2, 24 h): 0.76 µM
Complex III activity (OCR, % of control) ([2]; 0.01 µM): 103.6 % of control
Complex III activity (OCR, % of control) ([2]; 0.1 µM): 95.3 % of control
Complex III activity (OCR, % of control) ([2]; 0.2 µM): 101.4 % of control
Complex III activity (OCR, % of control) ([2]; 0.3 µM): 99.3 % of control
Complex III activity (OCR, % of control) ([2]; 0.4 µM): 99.1 % of control
Complex III activity (OCR, % of control) ([2]; 0.5 µM): 88.9 % of control
Complex III activity (OCR, % of control) ([2]; 0.75 µM): 75.4 % of control
Complex III activity (OCR, % of control) ([2]; 1 µM): 64.3 % of control
Complex III activity (OCR, % of control) ([2]; 3 µM): 15.0 % of control
IC50 ([2]; MiaPaCa-2 cells, 24 h treatment, antimycin A-inhibitable OCR, read-out: IC50, complex III-induced oxygen consumption (Complex III activity)): 1.2 µM

SMILES: CC(=O)N[C@@H](CS)C(=O)O [N-acetylcysteine, reference compound]
Restoration of cell proliferation in cells treated with Mito-PEG5-ATO (MiaPaCa-2 cells; 10 mM, cells treated with Mito-PEG5-ATO, not shown): did not restore cell proliferation

SMILES: CN(C)C(=N)N=C(N)N [metformin, reference compound]
Inhibition of cell proliferation in combination with AZD-3965 (MiaPaCa-2 cells; MiaPaCa-2 cells): Synergistic inhibition

IC50 (MiaPaCa-2 cells; MIA PaCa-2, MiaPaCa-2 cells, inhibitor alone, control ~90% confluence, read-out: IC50 (cell proliferation) without Mito-PEG5-ATO): 19 µM
SMILES: O=C(Cc1cccc(OC(F)(F)F)c1)Nc1ccc(CCCCc2nnc(NC(=O)Cc3ccccn3)s2)nn1 [CB-839, Telaglenastat, reference compound]
Inhibition of cell proliferation in combination with Mito-PEG5-ATO (combination index) (MiaPaCa-2 cells; MiaPaCa-2 cells, combined with Mito-PEG5-ATO): exhibits synergy

SMILES: [H]/N=C(/N)N/C(=N/[H])NCCc1ccccc1 [phenformin, reference compound]
Inhibition of cell proliferation in combination with AZD-3965 (MiaPaCa-2 cells; MiaPaCa-2 cells): Synergistic inhibition
